From US20180311238A1, “Selective Agonist Of a6 Containing nAChRs” (Saniona A/S, priority 2017, published 2018) come the findings set out here.

Data set [1] has as its target T1, neuromuscular nAChRs subtype composed of α1β1γδ subunits (Homo sapiens, UniProt P02708+P07510+Q07001).
T1 construct: endogenous in cells; host or cells: TE671
Kind of data set: biochemical. The data set is classed as binding.

Data set [2] concerns the target T2, α6/α3β2β3^V273S receptor (Homo sapiens, UniProt Q15825, V273S).
T2 construct: fused on or other part: P32297 (Neuronal acetylcholine receptor subunit alpha-3) P17787 (Neuronal acetylcholine receptor subunit beta-2)
Briefly: Oocyte two-electrode voltage-clamp electrophysiology, α6/α3β2β3V273S. The class given is cell-based. The settings on record: Xenopus laevis oocytes, fitted maximal current relative to acetylcholine; read-out: maximal efficacy compared to ACh. Here is the method: (§1) Two-electrode voltage-clamp electrophysiology recordings were done in Xenopus laevis oocytes injected with approximately 25 ng cRNA. After injection, oocytes were incubated at 17° C. for 2-3 days. During measurements, an oocyte was placed in a custom designed recording chamber where compound solutions are added directly to the oocyte via a glass capillary. Compound solutions were prepared on the day of measurement and applied to oocytes with a flowrate of 2.0 ml/min. All datasets were baseline subtracted and responses to individual applications were read as peak current amplitudes. Concentration response relationships describing compound effect at a fixed acetylcholine concentration were fitted to a monophasic Hill-equation. Potency (EC50) and efficacy values (fitted maximal current relative to maximal current of acetylcholine).
On the technique in general: Two-electrode voltage clamp is typically applied to oocytes expressing channels or transporters.

Data set [3] deals with T3, human α4β2 nicotinic receptors (Homo sapiens, UniProt P17787+P43681).
T3 construct: expressed in transfected cells
T3 sequence (P43681 29-627 limits assumed): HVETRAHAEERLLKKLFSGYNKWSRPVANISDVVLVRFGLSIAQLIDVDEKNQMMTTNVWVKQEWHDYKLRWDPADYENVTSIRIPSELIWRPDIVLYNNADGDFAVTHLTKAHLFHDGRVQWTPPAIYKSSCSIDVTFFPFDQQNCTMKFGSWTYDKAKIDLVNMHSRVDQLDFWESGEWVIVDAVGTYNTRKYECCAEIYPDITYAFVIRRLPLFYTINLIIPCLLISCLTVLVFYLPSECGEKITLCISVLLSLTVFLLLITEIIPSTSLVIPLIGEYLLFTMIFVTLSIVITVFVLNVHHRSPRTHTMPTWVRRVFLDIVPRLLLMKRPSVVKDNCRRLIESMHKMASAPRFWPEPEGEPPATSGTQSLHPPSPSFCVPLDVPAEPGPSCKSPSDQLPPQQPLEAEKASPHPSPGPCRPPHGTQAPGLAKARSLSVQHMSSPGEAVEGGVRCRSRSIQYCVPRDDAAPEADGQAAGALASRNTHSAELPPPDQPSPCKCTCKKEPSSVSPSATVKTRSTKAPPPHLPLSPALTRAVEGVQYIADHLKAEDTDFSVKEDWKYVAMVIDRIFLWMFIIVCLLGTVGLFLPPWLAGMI
T3 sequence (P17787 26-502): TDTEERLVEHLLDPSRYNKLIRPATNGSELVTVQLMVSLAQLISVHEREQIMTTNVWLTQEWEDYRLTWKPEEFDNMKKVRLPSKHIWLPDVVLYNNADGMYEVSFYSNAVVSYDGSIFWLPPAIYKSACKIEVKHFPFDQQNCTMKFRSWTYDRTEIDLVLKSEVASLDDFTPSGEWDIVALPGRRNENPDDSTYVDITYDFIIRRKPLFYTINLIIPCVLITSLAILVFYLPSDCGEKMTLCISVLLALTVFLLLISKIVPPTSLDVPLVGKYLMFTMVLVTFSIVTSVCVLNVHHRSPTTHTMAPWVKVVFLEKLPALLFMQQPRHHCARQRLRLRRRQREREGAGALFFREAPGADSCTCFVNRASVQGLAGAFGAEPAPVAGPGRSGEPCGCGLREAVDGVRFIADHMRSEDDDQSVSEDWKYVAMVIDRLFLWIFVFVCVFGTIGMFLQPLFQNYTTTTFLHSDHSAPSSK
Kind of data set: FLIPR fluorescence-based calcium assay, α4β2. The class given is cell-based. The settings on record: FLIPR calcium response relative to nicotine. Here is the method: (§2) The level of agonist activity of 9-methyl-3-pyridin-3-yl-3,9-diaza-bicyclo[3.3.1]nonane was tested in functional fluorescence-based calcium assays using TE671 cells and HEK293 cells stably expressing human α6/α3β2β3^V273S, α3β4 and α4β2 nicotinic receptors.
(§3) Cells were plated on poly-D-lysine coated 384-well microtiter plates and were allowed to proliferate for 24 h. Dye loading was performed by incubating cells with 2 μM fluo-4/AM for 1.5 h at room temperature. Dye not taken up by cells was removed by aspiration followed by three washing cycles with 25 μl of NMDG Ringer buffer (in mM: 140 NMDG, 5 KCl, 1 MgCl2, 10 CaCl2, 10 HEPES, pH 7.4) after which the cells were kept in 25 μl of the same buffer. The microtiter plates were placed in a Fluoremetric Imaging Plate Reader (FLIPR) and subjected to test compound at various concentrations. Background subtracted compound-mediated calcium responses were normalized to 100 μM nicotine control responses and pEC50 as well as relative maximal efficacy values were determined.

In data set [4] the target is α7 (Rattus norvegicus, UniProt Q05941). Kind of data set: biochemical. The data set is classed as binding.
α7, sequence (Q05941 23-502): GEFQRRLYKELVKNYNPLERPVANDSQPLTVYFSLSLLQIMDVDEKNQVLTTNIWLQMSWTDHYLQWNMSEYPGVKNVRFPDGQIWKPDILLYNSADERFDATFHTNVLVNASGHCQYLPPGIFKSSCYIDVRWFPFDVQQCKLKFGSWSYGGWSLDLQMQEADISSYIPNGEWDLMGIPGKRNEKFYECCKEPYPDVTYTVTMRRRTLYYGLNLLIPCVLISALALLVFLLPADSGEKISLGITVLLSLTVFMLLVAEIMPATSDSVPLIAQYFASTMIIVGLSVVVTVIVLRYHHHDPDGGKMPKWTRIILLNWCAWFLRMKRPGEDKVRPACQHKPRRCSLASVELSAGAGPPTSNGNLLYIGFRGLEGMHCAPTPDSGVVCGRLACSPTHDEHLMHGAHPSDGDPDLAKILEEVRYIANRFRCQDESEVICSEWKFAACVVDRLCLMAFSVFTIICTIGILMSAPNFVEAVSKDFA
The target of data set [5] is T4, nAChRs of the α4β2 subtype (Rattus norvegicus, UniProt P09483+P12390).
T4 construct: from tissue; host or cells: rat cerebral cortex membranes
Briefly: In vitro inhibition of 3H-cytisine binding, rat cortex. The settings on record: ligand 3H-cytisine. Here is the method:
The predominant subtype with high affinity for nicotine is comprised of α4 and β2 subunits. Here, the nicotine agonist ^3H-cytisine is used to selectively label nAChRs of the α4β2 subtype.
Preparations were performed at 0-4° C. Cerebral cortices from male Wistar rats (150-250 g) were homogenized for 20 sec in 15 ml Tris-HCl (50 mM, pH 7.4) containing 120 mM NaCl, 5 mM KCl, 1 mM MgCl2 and 2.5 mM CaCl2 using an Ultra-Turrax homogenizer. The homogenate was centrifuged at 27,000×g for 10 min. The supernatant was discarded and the pellet is re-suspended in fresh buffer and centrifuged a second time. The final pellet was re-suspended in fresh buffer (35 ml per g of original tissue) and used for binding assays.
Aliquots of 500 μl homogenate were added to 25 μl of test solution and 25 μl of ^3H-cytisine (1 nM, final concentration), mixed and incubated for 90 min at 0-4° C. Non-specific binding (5-10% of total binding) was determined using 100 μM (−)-nicotine. […]
Binding was terminated by rapid filtration onto Whatman GF/B glass fibre filters using a Brandel Cell Harvester, followed by seven washes with 2 ml ice-cold buffer. The amount of radioactivity on the filters was determined by conventional liquid scintillation counting using a Tri-Carb™ counter (PerkinElmer Life and Analytical Sciences).
Specific binding was calculated as total binding minus non-specific binding.

The subject of data set [6] is nicotinic receptors in the brain. The data set is classed as in vivo, mice. Here is the method:
Accumulation of ^3H-epibatidine occurs preferentially in brain regions containing nicotinic receptors. […] The specific binding in thalamus reaches a maximum 30 min after an i.v. injection of ^3H-epibatidine and this maximum is maintained for another 30 min.
All test substances were administered as solutions or suspensions prepared in vehicle (e.g. saline, water, 5% glucose, 0.5% CMC, 0.5% HPMC or 10% HPβCD) and tested in serial 1:3 dilutions. Doses were adjusted for salt.
Groups of three female NMRI mice (25 g) were administered vehicle or test substance p.o. at a volume of 0.75 ml. Mice were injected i.v. via the tail vein with 1 μCi of ^3H-epibatidine in 0.2 ml saline 45 min before decapitation. At the time of decapitation, the thalamus and a piece of cerebellum were rapidly dissected on ice. Tissues were weighed and dissolved for 36 h with 1 ml 2% sodium-laurylsulfate. The solubilized tissue was then added 2 ml of scintillation cocktail, and the amount of radioactivity in the tissue was counted by conventional liquid scintillation counting. Groups of vehicle-treated mice served as controls. Non-specific binding was defined as the amount of binding in cerebellum in vehicle treated mice.
Specific binding was determined as the amount of binding (dpm/5 mg tissue) in thalamus minus the amount of binding in cerebellum (dpm/5 mg tissue) in vehicle mice. […]

The subject of data set [7] is α4β2 cHS/cLS receptors. Kind of data set: Oocyte two-electrode voltage-clamp electrophysiology, α4β2. The class given is cell-based. To be noted: Xenopus laevis oocytes. Here is the method:
as §1

The target of data set [8] is T5, neuromuscular α1-containing receptor subtypes (Homo sapiens, UniProt P02708+P07510+Q07001).
T5 construct: endogenous in cells; host or cells: TE671
T5 sequence (P02708 21-457): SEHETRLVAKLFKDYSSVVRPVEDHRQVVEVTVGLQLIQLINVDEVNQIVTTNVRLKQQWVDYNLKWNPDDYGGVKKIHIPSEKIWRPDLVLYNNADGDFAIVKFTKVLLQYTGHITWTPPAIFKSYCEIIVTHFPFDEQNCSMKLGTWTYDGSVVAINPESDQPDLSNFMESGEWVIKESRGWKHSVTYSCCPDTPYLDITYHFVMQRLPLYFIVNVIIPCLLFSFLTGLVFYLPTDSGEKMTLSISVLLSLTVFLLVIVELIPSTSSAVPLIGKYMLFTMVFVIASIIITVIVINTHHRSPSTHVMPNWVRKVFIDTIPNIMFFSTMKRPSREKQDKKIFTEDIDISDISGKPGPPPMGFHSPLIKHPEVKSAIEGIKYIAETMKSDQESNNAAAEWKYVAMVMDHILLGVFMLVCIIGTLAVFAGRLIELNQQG
T5 sequence (P11230 24-501 partner): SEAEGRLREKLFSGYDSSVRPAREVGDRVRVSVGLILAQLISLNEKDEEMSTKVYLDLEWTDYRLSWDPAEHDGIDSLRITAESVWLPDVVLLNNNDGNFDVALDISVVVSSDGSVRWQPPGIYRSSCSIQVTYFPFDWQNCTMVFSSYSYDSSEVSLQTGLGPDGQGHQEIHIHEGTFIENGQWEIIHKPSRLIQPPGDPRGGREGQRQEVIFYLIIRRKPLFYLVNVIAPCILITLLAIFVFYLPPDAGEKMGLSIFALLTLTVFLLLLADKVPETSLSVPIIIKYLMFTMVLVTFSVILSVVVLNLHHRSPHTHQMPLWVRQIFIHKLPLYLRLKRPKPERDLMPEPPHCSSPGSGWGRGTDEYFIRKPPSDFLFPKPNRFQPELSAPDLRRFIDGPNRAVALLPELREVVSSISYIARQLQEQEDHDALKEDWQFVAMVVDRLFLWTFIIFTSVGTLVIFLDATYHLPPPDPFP
T5 sequence (P07510 23-517): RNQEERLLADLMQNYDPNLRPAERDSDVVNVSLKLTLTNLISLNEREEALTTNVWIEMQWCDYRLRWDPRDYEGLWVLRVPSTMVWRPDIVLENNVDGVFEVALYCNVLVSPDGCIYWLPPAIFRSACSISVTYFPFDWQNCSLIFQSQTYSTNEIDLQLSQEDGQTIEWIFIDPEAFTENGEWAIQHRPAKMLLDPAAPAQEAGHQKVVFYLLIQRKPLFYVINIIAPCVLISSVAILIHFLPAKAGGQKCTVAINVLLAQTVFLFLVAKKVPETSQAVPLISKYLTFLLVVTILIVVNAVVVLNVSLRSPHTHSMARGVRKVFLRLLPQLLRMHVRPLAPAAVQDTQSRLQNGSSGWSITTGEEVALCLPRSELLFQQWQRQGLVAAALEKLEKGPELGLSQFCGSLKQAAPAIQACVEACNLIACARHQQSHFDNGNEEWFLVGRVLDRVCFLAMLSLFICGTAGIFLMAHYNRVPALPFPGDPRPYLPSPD
T5 sequence (Q07001 22-517): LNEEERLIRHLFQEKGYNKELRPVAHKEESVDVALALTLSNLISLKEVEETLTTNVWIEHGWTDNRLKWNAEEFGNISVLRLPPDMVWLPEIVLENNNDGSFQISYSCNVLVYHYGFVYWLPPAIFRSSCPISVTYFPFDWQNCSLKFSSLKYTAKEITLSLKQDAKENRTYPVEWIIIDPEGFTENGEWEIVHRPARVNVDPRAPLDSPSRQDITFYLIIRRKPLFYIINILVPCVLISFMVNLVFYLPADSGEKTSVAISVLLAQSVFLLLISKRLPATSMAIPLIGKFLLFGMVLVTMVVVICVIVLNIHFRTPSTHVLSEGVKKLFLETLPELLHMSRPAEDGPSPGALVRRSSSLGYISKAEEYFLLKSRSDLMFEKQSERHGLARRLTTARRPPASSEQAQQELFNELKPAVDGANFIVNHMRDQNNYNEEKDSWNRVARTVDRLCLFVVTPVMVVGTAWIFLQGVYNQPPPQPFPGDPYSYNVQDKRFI
Briefly: FLIPR fluorescence-based calcium assay, TE671 cells. The class given is cell-based. To be noted: FLIPR calcium response relative to nicotine. As to the method:
as §2, §3
The neuromuscular nAChRs subtype—composed of α1β1γδ subunits—can be studied in the human medulloblastoma cell line TE671, and the α1 subunit can be specifically labelled with ^3H-α-bungarotoxin.

For data set [9], the target named is T6, (Homo sapiens, UniProt P30926+P32297).
T6 construct: expressed in transfected cells; host or cells: Xenopus laevis oocytes injected with cRNA
T6 sequence (P32297 32-505): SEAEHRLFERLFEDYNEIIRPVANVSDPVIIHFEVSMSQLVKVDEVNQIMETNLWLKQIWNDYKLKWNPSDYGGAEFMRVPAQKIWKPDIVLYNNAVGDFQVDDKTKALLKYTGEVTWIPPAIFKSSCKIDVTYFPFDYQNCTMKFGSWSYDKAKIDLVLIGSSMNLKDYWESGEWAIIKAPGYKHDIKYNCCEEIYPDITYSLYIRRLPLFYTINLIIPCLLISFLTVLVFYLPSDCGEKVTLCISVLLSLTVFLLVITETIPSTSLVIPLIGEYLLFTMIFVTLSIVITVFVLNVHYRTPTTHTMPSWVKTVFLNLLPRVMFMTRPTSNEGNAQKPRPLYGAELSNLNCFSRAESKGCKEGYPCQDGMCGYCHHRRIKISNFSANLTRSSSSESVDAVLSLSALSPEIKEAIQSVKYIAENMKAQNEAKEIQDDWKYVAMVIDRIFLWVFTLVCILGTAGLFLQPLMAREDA
T6 sequence (P30926 22-498): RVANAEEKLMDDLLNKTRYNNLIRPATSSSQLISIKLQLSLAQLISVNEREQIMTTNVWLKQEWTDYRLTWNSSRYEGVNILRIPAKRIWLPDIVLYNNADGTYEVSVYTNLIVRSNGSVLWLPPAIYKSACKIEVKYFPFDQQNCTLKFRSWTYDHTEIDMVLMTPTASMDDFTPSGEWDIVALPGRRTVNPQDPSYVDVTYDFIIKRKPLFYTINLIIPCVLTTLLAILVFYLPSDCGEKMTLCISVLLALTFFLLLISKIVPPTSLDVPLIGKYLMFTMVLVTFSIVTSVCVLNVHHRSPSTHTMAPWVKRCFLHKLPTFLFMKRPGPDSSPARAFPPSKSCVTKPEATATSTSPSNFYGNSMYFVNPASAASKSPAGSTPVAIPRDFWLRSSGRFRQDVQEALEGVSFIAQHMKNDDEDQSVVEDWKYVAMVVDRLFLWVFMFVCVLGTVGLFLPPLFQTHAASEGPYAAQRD
Kind of data set: Oocyte two-electrode voltage-clamp electrophysiology, α3β4. The data set is classed as cell-based. To be noted: Xenopus laevis oocytes. Here is the method: as §1

Broadly, the Ki is the equilibrium dissociation constant of an inhibitor or competing ligand from its target.

T1 sequence (P02708 21-457): as the sequence (P02708 21-457) above
T1 sequence (Q07001 22-517): as the sequence (Q07001 22-517) above
T1 sequence (P07510 23-517): as the sequence (P07510 23-517) above
T1 sequence (P11230 24-501, further chain): as the sequence (P11230 24-501 partner) above

Consider `CN1C2CCCC1CN(c1cccnc1)C2` [9-methyl-3-pyridin-3-yl-3,9-diaza-bicyclo[3.3.1]nonane], for which the values for the Ki in data set [1], in data set [4] and in data set [5] were 320 nM, 290 nM and 3.1 nM, respectively. Also, the Emax in [2] came out at 27%. For the same compound, the efficacy result in [3], in data set [7], in data set [8] and in [9] was “practically no efficacy” each time. In addition, in data set [6] (mice pre-dosed for 45 min, p.o.), the “ED50, inhibition of specific binding of 3H-epibatidine” value came to 1.3 mg/kg. Further, the “maintained brain exposure (duration)” value in data set [6] (mice, 2 mg/kg p.o., time course up to 6 hours) is given as “at least 6 hours”.
